Results reported in patent publication US11236068B2, “Fused ring compounds” (Genentech, Inc., priority 2018, dated 2022).

Legend:
[1] = Whole blood stability assay; format: in vitro ADME; details: fresh whole blood, drug final concentration 1 μM, 37° C., 180 minutes
Method: Whole Blood Stability Assay
A whole blood stability assay was performed using fresh blood with a drug final concentration of 1 μM. The drug-blood mixtures were incubated at 37° C. for 180 minutes.

[2] = target: T1, K-Ras G12C (Homo sapiens (Human), UniProt P01116, G12C); experiment: K-Ras G12C, SOS1, Raf RBD HTRF assay for inhibition of GTP exchange; format: biochemical; details: 18 hours incubation with K-Ras G12C at room temperature, SOS1-mediated GTP exchange
Method: K-Ras G12C, SOS1, Raf RBD Homogeneous Time Resolved Fluorescence (HTRF) Assay for Inhibition of GTP Exchange
After 18 hours at room temperature, the SOS1 GTP exchange factor (1.67 nM during exchange, 1.25 nM final) was added to initiate nucleotide exchange to GTP (200 μM during exchange, 150 µM final). The level of GTP exchange was assessed by addition of a Ras binding domain derived from C-Raf and the HTRF detection antibodies Tb-anti-FLAG and D2-anti-his (Cis-Bio) at 50 nM, 1 nM and 12.5 nM, respectively. After 2 hours, the ratio of 665 nm to 615 nm emission with 320 nm excitation was measured on an Envision plate reader (Perkin Elmer).
The final reaction volume was 20l in a ProxiPlate-384F Plus (Perkin Elmer), in buffer containing 20 mM HEPES, 150 mM NaCl, 1 mM MgCl2, 0.1% BSA, 0.03% Tween-20 and 1 mM DTT. […] HTRF data are presented below in Table 3.
Target sequence in this assay (P01116 other isoform, or with tags, fused parts or gaps G12C): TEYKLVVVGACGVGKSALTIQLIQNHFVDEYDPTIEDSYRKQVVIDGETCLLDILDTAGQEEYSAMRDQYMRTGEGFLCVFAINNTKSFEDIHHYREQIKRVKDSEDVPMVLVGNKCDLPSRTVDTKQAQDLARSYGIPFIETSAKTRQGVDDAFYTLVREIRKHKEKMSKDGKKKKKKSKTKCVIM

[3] = target: T1, K-Ras G12C; experiment: Western blot assay for in cell alkylation of K-Ras G12C (HCC1171 cells); format: cell-based; details: 18 hours at 37° C., 7 point dose response
Target sequence in this assay (P01116 other isoform, or with tags, fused parts or gaps G12C): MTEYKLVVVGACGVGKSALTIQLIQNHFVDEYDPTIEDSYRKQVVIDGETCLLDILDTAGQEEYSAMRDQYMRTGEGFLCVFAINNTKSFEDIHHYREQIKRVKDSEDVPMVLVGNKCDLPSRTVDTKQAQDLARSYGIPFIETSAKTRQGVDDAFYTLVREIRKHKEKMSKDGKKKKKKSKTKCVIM

half-life at 1 μM [1] [h] | IC50 [2] [nM] | EC50 [3] [nM] | Compound
 |  | 29 | C=CC(=O)N1CCN(c2nc(OC[C@@H]3C[C@@H](F)CN3CCOC)nc3cc(-c4nc(N)ccc4C(F)(F)F)c(Cl)cc23)CC1 [Example 89, 1-[4-[7-[6-amino-3-(trifluoromethyl)-2-pyridyl]-6-chloro-2-[[(2S,4R)-4-fluoro-1-(2-methoxyethyl)pyrrolidin-2-yl]methoxy]quinazolin-4-yl]piperazin-1-yl]prop-2-en-1-one]
 |  | 55 | C=CC(=O)N1CCN(c2nc(OC[C@@H]3C[C@@H](F)[C@H](C)N3C)nc3cc(-c4nc(N)ccc4C(F)(F)F)c(Cl)cc23)CC1 [Example 90, 1-[4-[7-[6-amino-3-(trifluoromethyl)-2-pyridyl]-6-chloro-2-[[(2S,4R,5S)-4-fluoro-1,5-dimethyl-pyrrolidin-2-yl]methoxy]quinazolin-4-yl]piperazin-1-yl]prop-2-en-1-one]
 |  | 40 | C=CC(=O)N1CCN(c2nc(OC[C@@H]3CCCN3CCOC)nc3cc(-c4nc(N)ccc4C(F)(F)F)c(Cl)cc23)CC1 [Example 91, 1-[4-[7-[6-amino-3-(trifluoromethyl)-2-pyridyl]-6-chloro-2-[[(2S)-1-(2-methoxyethyl)pyrrolidin-2-yl]methoxy]quinazolin-4-yl]piperazin-1-yl]prop-2-en-1-one]
3 |  | 18 | C=CC(=O)N1CCN(c2nc(OC[C@@H]3C[C@@H](OC(F)F)CN3C)nc3cc(-c4nc(N)ccc4C(F)(F)F)c(Cl)cc23)CC1 [Example 92, 1-[4-[7-[6-amino-3-(trifluoromethyl)-2-pyridyl]-6-chloro-2-[[(2S,4R)-4-(difluoromethoxy)-1-methyl-pyrrolidin-2-yl]methoxy]quinazolin-4-yl]piperazin-1-yl]prop-2-en-1-one]
 |  | 130 | C=CC(=O)N1CCN(c2nc(OC[C@@H]3CCCN3)nc3c(F)c(-c4nc(N)cc(C)c4C(F)(F)F)c(Cl)cc23)[C@@H](C)C1 [Example 93, 1-((3S)-4-(7-(6-amino-4-methyl-3-(trifluoromethyl)pyridin-2-yl)-6-chloro-8-fluoro-2-(((S)-pyrrolidin-2-yl)methoxy)quinazolin-4-yl)-3-methylpiperazin-1-yl)prop-2-en-1-one]
 |  | 22 | C=CC(=O)N1CCN(c2nc(OCC3(C)C[C@@H](F)CN3C)nc3cc(-c4nc(N)ccc4C(F)(F)F)c(Cl)cc23)CC1 (stereo partly drawn) [Example 96, 1-[4-[7-[6-amino-3-(trifluoromethyl)-2-pyridyl]-6-chloro-2-[[(4R)-4-fluoro-1,2-dimethyl-pyrrolidin-2-yl]methoxy]quinazolin-4-yl]piperazin-1-yl]prop-2-en-1-one]

Second part, the compound before the results:

Compound | half-life at 1 μM [1] [h] | IC50 [2] [nM] | EC50 [3] [nM]
C=CC(=O)N1CCN(c2ncnc3c(F)c(-c4nc(N)cc(C)c4C(F)(F)F)c(Cl)cc23)[C@@H](C)C1 [Example 19, 1-((3S)-4-(7-(6-amino-4-methyl-3-(trifluoromethyl)pyridin-2-yl)-6-chloro-8-fluoroquinazolin-4-yl)-3-methylpiperazin-1-yl)prop-2-en-1-one] | 2.67 |  | 
C=CC(=O)N1CCN(c2ncnc3cc(-c4nc(N)ccc4C(F)(F)F)c(S(C)(=O)=O)cc23)CC1 [Example 28, 1-[4-[7-[6-amino-3-(trifluoromethyl)-2-pyridyl]-6-methylsulfonyl-quinazolin-4-yl]piperazin-1-yl]prop-2-en-1-one] |  | 540 | 7800
C=CC(=O)N1CCN(c2ncnc3cc(-c4nc(N)cc5cccc(F)c45)c(Cl)cc23)CC1 [Example 48, 1-[4-[7-(3-amino-8-fluoroisoquinoline-1-yl)-6-chloroquinazolin-4-yl]piperazin-1-yl]prop-2-en-1-one] |  | 32 | 140
C=CC(=O)N1CCN(c2nc(OC[C@@H]3CCCN3C)nc3cc(-c4nc(N)cc(C)c4C(F)(F)F)c(Cl)cc23)[C@@H](C)C1 [Example 61, 1-((S)-4-(7-(6-amino-4-methyl-3-(trifluoromethyl)pyridin-2-yl)-6-chloro-2-(((S)-1-methylpyrrolidin-2-yl)methoxy)quinazolin-4-yl)-3-methylpiperazin-1-yl)prop-2-en-1-one] | 2.67 |  | 2
Cc1cc(N)nc(-c2cc3nc(OC[C@@H]4CCCN4C)nc(N4CCN(C(=O)/C=C/C(F)F)C[C@@H]4C)c3cc2Cl)c1C(F)(F)F [Example 65, (E)-1-((S)-4-(7-(6-amino-4-methyl-3-(trifluoromethyl)pyridin-2-yl)-6-chloro-2-(((S)-1-methylpyrrolidin-2-yl)methoxy)quinazolin-4-yl)-3-methylpiperazin-1-yl)-4,4-difluorobut-2-en-1-one] | 0.617 |  | 7.6
C=CC(=O)N1CCN(c2nc(OC[C@@H]3C[C@@H](F)CN3C)nc3c(F)c(-c4nc(N)cc(C)c4C(F)(F)F)c(Cl)cc23)[C@@H](C)C1 [Example 69, 1-[(3S)-4-[7-[6-amino-4-methyl-3-(trifluoromethyl)-2-pyridyl]-6-chloro-8-fluoro-2-[[(2S,4R)-4-fluoro-1-methyl-pyrrolidin-2-yl]methoxy]quinazolin-4-yl]-3-methyl-piperazin-1-yl]prop-2-en-1-one] | > 9 |  | 1
C=CC(=O)N1CCN(c2nc(OC[C@@H]3CCCN3C)nc3cc(-c4nc(N)ccc4C(F)(F)F)c(Cl)cc23)CC1 [Example 70, (S)-1-(4-(7-(6-amino-3-(trifluoromethyl)pyridin-2-yl)-6-chloro-2-((1-methylpyrrolidin-2-yl)methoxy)quinazolin-4-yl)piperazin-1-yl)prop-2-en-1-one] | 1.02 |  | 19
C=CC(=O)N1CCN(c2nc(OC[C@@H]3C[C@@H](OCC)CN3C)nc3cc(-c4nc(N)ccc4C(F)(F)F)c(Cl)cc23)CC1 [Example 71, 1-(4-(7-(6-amino-3-(trifluoromethyl)pyridin-2-yl)-6-chloro-2-(((2S,4R)-4-ethoxy-1-methylpyrrolidin-2-yl)methoxy)quinazolin-4-yl)piperazin-1-yl)prop-2-en-1-one] | 1.52 |  | 18
C=CC(=O)N1CCN(c2nc(OC[C@@H]3[C@H]4C[C@H]4CN3C)nc3cc(-c4nc(N)ccc4C(F)(F)F)c(Cl)cc23)CC1 [Example 78a, 1-(4-(7-(6-amino-3-(trifluoromethyl)pyridin-2-yl)-6-chloro-2-(((1S,2S,5R)-3-methyl-3-azabicyclo[3.1.0]hexan-2-yl)methoxy)quinazolin-4-yl)piperazin-1-yl)prop-2-en-1-one] |  |  | 56
C=CC(=O)N1CCN(c2nc(OC[C@@H]3[C@@H]4C[C@@H]4CN3C)nc3cc(-c4nc(N)ccc4C(F)(F)F)c(Cl)cc23)CC1 [Example 78b, 1-(4-(7-(6-amino-3-(trifluoromethyl)pyridin-2-yl)-6-chloro-2-(((1R,2S,5S)-3-methyl-3-azabicyclo[3.1.0]hexan-2-yl)methoxy)quinazolin-4-yl)piperazin-1-yl)prop-2-en-1-one] |  |  | 40
C=CC(=O)N1CCN(c2nc(OCC3CCC(COC)N3C)nc3cc(-c4nc(N)ccc4C(F)(F)F)c(Cl)cc23)CC1 (stereo not drawn) [Example 80, 1-(4-(7-(6-amino-3-(trifluoromethyl)pyridin-2-yl)-6-chloro-2-((5-(methoxymethyl)-1-methylpyrrolidin-2-yl)methoxy)quinazolin-4-yl)piperazin-1-yl)prop-2-en-1-one] |  |  | 71
C=CC(=O)N1CCN(c2nc(OC[C@@H]3CCCN3C3COC3)nc3cc(-c4nc(N)ccc4C(F)(F)F)c(Cl)cc23)CC1 [Example 87, 1-[4-[7-[6-amino-3-(trifluoromethyl)-2-pyridyl]-6-chloro-2-[[(2S)-1-(oxetan-3-yl)pyrrolidin-2-yl]methoxy]quinazolin-4-yl]piperazin-1-yl]prop-2-en-1-one] |  |  | 180
C=CC(=O)N1CCN(c2nc(OCC3(N(C)C)CC3)nc3cc(-c4nc(N)ccc4C(F)(F)F)c(Cl)cc23)CC1 [Example 88, 1-(4-(7-(6-amino-3-(trifluoromethyl)pyridin-2-yl)-6-chloro-2-((1-(dimethylamino)cyclopropyl)methoxy)quinazolin-4-yl)piperazin-1-yl)prop-2-en-1-one] |  |  | 240
